Here are results for 40 molecules from patent publication US20080293916A1, “Hla-Binding Peptide, and Dna Fragment and Recombinant Vector Coding for Said Hla-Binding Peptide” (NEC CORPORATION, priority 2004, published 2008).

Where two headings read alike, the source gives them in different places. Ends that are not written are not given here.

Assay [1] addresses HLA-A2 molecule, product of the HLA-A*0201 gene (Homo sapiens, UniProt P04439, D140Y/D185E/D98H/E176V/E277Q/G131W/G231S/I119V/I121R/I166T/I218V/L300P/L318F/N151K/N90K/P208A/P217A/Q86G/Q94H/R138H/R169H/T345S). Kind of assay: Experiment of binding peptide to HLA-A2 molecule (JY cells, flow cytometer). As for the experimental part: (§1) <Experiment of Binding Peptide to HLA-A2 Molecule>
(§2) JY cells were first exposed to acidic conditions at a pH of 3.8 for 30 seconds, thus dissociating and removing a light chain β2m and an endogenous peptide, which were noncovalently associated with the HLA-A*0201 molecule. After neutralization, a reassociation experiment was carried out.
(§3) The above-mentioned JY cells and the purified β2m were added to stepped dilutions of peptide for which the binding ability would be measured, and incubation was carried out on ice for 4 hours. HLA-A*0201 molecules that had reassociated up to this point were stained using the associating type specific fluorescently-labeled monoclonal antibody BB7.2.
(§4) Subsequently, the amount of fluorescence per cell was measured using a flow cytometer and a dissociation constant Kd value in molar concentration was calculated by a published method (Udaka et al., Immunogenetics, 51, 816-828, 2000).

Assay [2] relates to human HLA-A type molecule. Description: Binding experiment, result stated in words for HLA-A type molecule. As for the experimental part:
<Experiment of Binding Peptide to HLA-A24 Molecule>
The ability of a peptide to bind to an HLA-A24 molecule, which is a product of the HLA-A*2402 gene, was measured using C1R-A24 cells expressing the HLA-A24 molecule (cells prepared by Professor Masafumi Takiguchi, Kumamoto University being supplied with permission by Assistant Professor Masaki Yasukawa, Ehime University).
C1R-A24 cells were first exposed to acidic conditions at a pH of 3.3 for 30 seconds, thus dissociating and removing a light chain β2m, which is associated with HLA class I molecules in common, and an endogenous peptide originally bound to the HLA-A*2402 molecule. After neutralization, purified β2m was added to C1R-A24 cells, the obtained product was added to serial dilutions of a peptide, and incubated on ice for 4 hours. Staining was carried out using fluorescently labeled monoclonal antibody 17A12, which recognizes association (MHC-pep) of the three members, that is, HLA-A*2402 molecule, the peptide, and β2m, which had reassociated during the incubation.
Subsequently, the MHC-pep count per C1R-A24 cell (proportional to the strength of fluorescence of the above-mentioned fluorescent antibody) was quantitatively measured using an FACScan fluorescence-activated cell sorter (Becton Dickinson Biosciences). A binding dissociation constant Kd value between the HLA-A24 molecule and the peptide was calculated from the average strength of fluorescence per cell by a published method (Udaka et al., Immunogenetics, 51, 816-828, 2000).
as §1, §2, §3, §4

The target in assay [3] is T1, HLA-A2 molecule (product of the HLA-A*0201 gene) on JY cells (human).
T1 construct: MHC class I molecule on cells; Emptied by acid treatment (pH 3.8, 30 s), then reassociated with added purified beta2m and the test peptide; also called HLA-A*0201 molecule; human HLA-A2 molecule
Description: reassociation on acid-stripped JY cells with added beta2m, mAb BB7.2 staining, flow cytometry.

For assay [4], the target named is T2, HLA-A24 molecule (product of the HLA-A*2402 gene) on C1R-A24 cells (human).
T2 construct: MHC class I molecule on cells; Emptied by acid treatment (pH 3.3, 30 s), then reassociated with added purified beta2m and the test peptide; also called HLA-A*2402 molecule; human HLA-A24 molecule
Description: reassociation on acid-stripped C1R-A24 cells with added beta2m, mAb 17A12 staining, flow cytometry.

ALLLRTPYS [compound 38]: the Kd in assay [1] was 4.69 µM. Regarding ALLPAVPSL [compound 2], in assay [2], the “binding to a human HLA-A type molecule (in words)” value (from here on “binding”) is reported as “experimentally confirmed to bind”.

In the case of ALLPAVPSL [compound 33], in assay [1], the Kd is 0.0143 µM. With DFKDCERRF [compound 1], the “binding” value in assay [2] is listed as “experimentally confirmed to bind”. As to DVRDLNALL [compound 5], the “binding” value in assay [2] is “experimentally confirmed to bind”. In assay [1], GVFRGIQDV [compound 51] had a Kd of 1.41 µM. ILCGAQYRI [compound 14]: in assay [2], the “binding” value is “experimentally confirmed to bind”. In turn, ILCGAQYRI [compound 40] had a Kd in assay [1] of 7.51 µM. For the molecule NLGATLKGV [compound 31], the Kd in assay [1] was 8.17 µM. Regarding NLYQMTSQL [compound 29], the “binding” value in assay [2] is on record as “experimentally confirmed to bind”. With NLYQMTSQL [compound 44], the Kd in assay [1] was 1.49 µM.

Regarding NMTKLQLAL [compound 10], the “binding” value in assay [2] was “experimentally confirmed to bind”. In turn, NMTKLQLAL [compound 49] showed a Kd in assay [1] of 3.71 µM. For PPPPPHSFI [compound 7], the “binding” value in assay [2] is listed as “experimentally confirmed to bind”.

As to PPPPPPHSF [compound 4], in assay [2], the “binding” value was “experimentally confirmed to bind”. In assay [1], QQYSVPPPV [compound 39] gave a Kd of 3.24 µM. QYRIHTHGV [compound 30]: the “binding” value in assay [2] is on record as “experimentally confirmed to bind”. Regarding SFIKQEPSW [compound 6], the “binding” value in assay [2] was “experimentally confirmed to bind”. Turning to VAAGSSSSV [compound 43], the Kd in assay [1] (−log Kd value (Kd in molar concentration), HLA-A2, JY cells, on ice 4 hours, read-out: BINDING EXPERIMENT DATA (converted)) is 9.95 µM. With YRIHTHGVF [compound 3], the “binding” value in assay [2] is “experimentally confirmed to bind”. In the case of VAAGSSSSV [HLA-A2-binding peptide of SEQ ID NO 43 (WT1 peptide, SEQ NAME 250)], in assay [3], the “-log Kd” value was 5 -log Kd (Kd in molar concentration). DVRDLNALL [HLA-A24-binding peptide of SEQ ID NO 5 (WT1 peptide, SEQ NAME 4)]: the “-log Kd” value in assay [4] is 4.45 -log Kd (Kd in molar concentration).

As for ALLLRTPYS [HLA-A2-binding peptide of SEQ ID NO 38 (WT1 peptide, SEQ NAME 214)], the “-log Kd” value in assay [3] was 5.33 -log Kd (Kd in molar concentration). On to ALLPAVPSL [HLA-A24-binding peptide of SEQ ID NO 2 (WT1 peptide, SEQ NAME 10)], for which the “-log Kd” value in assay [4] was 9.16 -log Kd (Kd in molar concentration).

For the molecule YRIHTHGVF [HLA-A24-binding peptide of SEQ ID NO 3 (WT1 peptide, SEQ NAME 286)], in assay [4], the “-log Kd” value was 4.39 -log Kd (Kd in molar concentration). Regarding NMTKLQLAL (also called NMTKLQLAL) [HLA-A2-binding peptide of SEQ ID NO 49 (WT1 peptide, SEQ NAME 441)], the “-log Kd” value in assay [3] is 5.43 -log Kd (Kd in molar concentration). Same read-out and setting: for GVFRGIQDV [HLA-A2-binding peptide of SEQ ID NO 51 (WT1 peptide, SEQ NAME 292)] the value was 5.85 -log Kd (Kd in molar concentration).

On to NMTKLQLAL (also called NMTKLQLAL) [HLA-A24-binding peptide of SEQ ID NO 10 (WT1 peptide, SEQ NAME 441)], for which, in assay [4], the “-log Kd” value was 6.38 -log Kd (Kd in molar concentration).

For the molecule SFIKQEPSW [HLA-A24-binding peptide of SEQ ID NO 6 (WT1 peptide, SEQ NAME 70)], in assay [4], the “-log Kd” value was 8.16 -log Kd (Kd in molar concentration). Turning to NLGATLKGV [HLA-A2-binding peptide of SEQ ID NO 31 (WT1 peptide, SEQ NAME 242)], the “-log Kd” value in assay [3] is 5.09 -log Kd (Kd in molar concentration). With ILCGAQYRI (also called ILOGAQYRI) [HLA-A24-binding peptide of SEQ ID NO 14 (WT1 peptide, SEQ NAME 280)], the “-log Kd” value in assay [4] was 5.9 -log Kd (Kd in molar concentration).

For PPPPPHSFI [HLA-A24-binding peptide of SEQ ID NO 7 (WT1 peptide, SEQ NAME 64)], the “-log Kd” value in assay [4] is 4.4 -log Kd (Kd in molar concentration).

Turning to QQYSVPPPV [HLA-A2-binding peptide of SEQ ID NO 39 (WT1 peptide, SEQ NAME 191)], the “-log Kd” value in assay [3] was 5.49 -log Kd (Kd in molar concentration). The same measure, in the same setting: for ILCGAQYRI (also called ILOGAQYRI) [HLA-A2-binding peptide of SEQ ID NO 40 (WT1 peptide, SEQ NAME 280)] the value was 5.12 -log Kd (Kd in molar concentration). On to NLYQMTSQL [HLA-A24-binding peptide of SEQ ID NO 29 (WT1 peptide, SEQ NAME 225)], for which, in assay [4], the “-log Kd” value was 4.38 -log Kd (Kd in molar concentration).

As to ALLPAVPSL [HLA-A2-binding peptide of SEQ ID NO 33 (WT1 peptide, SEQ NAME 10)], the “-log Kd” value in assay [3] is 7.84 -log Kd (Kd in molar concentration).

B1: HLA-A24-binding peptide of SEQ ID NO 1 (WT1 peptide, SEQ NAME 356) (peptide)
peptide: DFKDCERRF
notes: Synthesised by the Fmoc solid-phase method, purity 95% or higher
On to B1, for which, in assay [4], the “-log Kd” value was 4.4 -log Kd (Kd in molar concentration). For QYRIHTHGV [HLA-A24-binding peptide of SEQ ID NO 30 (WT1 peptide, SEQ NAME 285)], the “-log Kd” value in assay [4] is 5.62 -log Kd (Kd in molar concentration). Same read-out and setting: for PPPPPPHSF [HLA-A24-binding peptide of SEQ ID NO 4 (WT1 peptide, SEQ NAME 63)] the value was 4.4 -log Kd (Kd in molar concentration).

As for NLYQMTSQL [HLA-A2-binding peptide of SEQ ID NO 44 (WT1 peptide, SEQ NAME 225)], the “-log Kd” value in assay [3] is 5.83 -log Kd (Kd in molar concentration).
